Data published in patent US12403141B2, “Deuterated MK2 pathway inhibitors and methods of using the same” (ACLARIS THERAPEUTICS, INC., priority 2019, dated 2025).
Where two headings read alike, the source gives them in different places.

Columns and labels:
human hepatocytes = assay: In vitro metabolite profile in human hepatocytes; format: in vitro ADME; design: key to UV % at 280-290 nm or observed (+ or --), metabolite M387 (O-dealkylation) / UV % at 280-290 nm or observed (+ or --), metabolite M532b (Hydroxylation) / UV % at 280-290 nm or observed (+ or --), metabolite M532e (Hydroxylation) / UV % at 280-290 nm or observed (+ or --), metabolite M563 (O-dealkylation + Glucuronidation) / UV % at 280-290 nm or observed (+ or --), metabolite M530b (Hydroxylation) / UV % at 280-290 nm or observed (+ or --), metabolite M530e (Hydroxylation): +: only detected by MS; --: not detected or trace; settings: 10 μM; for UV % at 280-290 nm, Parent-T0 min: T0 min (normalized as 100%)
Experimental: (§1) Briefly, each test compound (final concentration of 10 μM containing 0.1% DMSO) was incubated with rat, dog, minipig, monkey, or human hepatocytes (final viable cell density of 1×10^6 cells/mL) at 37° C. with 5% CO2 in HI hepatocyte maintenance media (BIOIVT; Catalog #Z99009) for 120 minutes. Reactions were initiated by combining 200 μL of pre-warmed 2× dosing solution containing 20 μM test compound and 0.2% DMSO in HI maintenance media with 200 μL of pre-warmed hepatocyte solution containing 2×10^6 cells/mL in HI maintenance media. Samples were taken at 0 minutes (T0) and 120 minutes (T120) by quenching the reaction with 1200 μL acetonitrile. After quenching, the samples were sonicated for 2 minutes and then centrifuged at 1400 rpm for 5 minutes. A 1400-μL aliquot of the supernatant was evaporated under a stream of N2 until dry. The dried extracts were then reconstituted with 200 μL acetonitrile: H2O (1:3 v/v), vortexed for 2 minutes and centrifuged at 14000 rpm for 5 minutes. A 2-μL aliquot of the supernatant was injected onto a Xevo UPLC-UV-G2-S Q-Tof system (Waters®) with positive-ion electrospray ionization for analysis. Chromatographic separation was achieved on an Acquity UPLC®BEH C18 column (2.1×50 mm, 1.7 μm; Waters®) by gradient elution using varying proportions of mobile phase A (H2O with 0.1% formic acid) and mobile phase B (acetonitrile with 0.1% formic acid) at a constant flow rate of 400 μL/minute over a total run time of 10 minutes. LC-UV-MS extract ion chromatograms (EIC) of the T120 samples were compared to the T0 samples to identify the major putative metabolites which were named as Mm/z.

dog hepatocytes = assay: In vitro metabolite profile in dog hepatocytes; format: in vitro ADME; design: key to UV % at 280-290 nm or observed (+ or --), metabolite M387 (O-dealkylation) / UV % at 280-290 nm or observed (+ or --), metabolite M532b (Hydroxylation) / UV % at 280-290 nm or observed (+ or --), metabolite M532c (Hydroxylation) / UV % at 280-290 nm or observed (+ or --), metabolite M532d (Hydroxylation) / UV % at 280-290 nm or observed (+ or --), metabolite M532e (Hydroxylation) / UV % at 280-290 nm or observed (+ or --), metabolite M563 (O-dealkylation + Glucuronidation) / UV % at 280-290 nm or observed (+ or --), metabolite M530b (Hydroxylation) / UV % at 280-290 nm or observed (+ or --), metabolite M530c (Hydroxylation) / UV % at 280-290 nm or observed (+ or --), metabolite M530d (Hydroxylation) / UV % at 280-290 nm or observed (+ or --), metabolite M530e (Hydroxylation): +: only detected by MS; --: not detected or trace; settings: 10 μM; for UV % at 280-290 nm, Parent-T0 min: T0 min (normalized as 100%)
Experimental: as §1

[1] = IV pharmacokinetics in male SD rats; format: in vivo, rat; settings: for clearance: male, Sprague-Dawley, rat, plasma, iv
Experimental: Pharmacokinetic parameters of some examples were evaluated in male Sprague Dawley (SD) rats after intravenous (IV) and oral (PO) dosing. Male SD rats (5-6 weeks of age) were fasted for 12 hours before administration of the compound of interest. Animals were allowed access to food 2 h after dosing and water was given ad libitum. Except for the compound of Example 13, pharmacokinetic experiments comparing deuterium containing and non-deuterium containing compounds were performed at the same time using the same cohort of animals. The pharmacokinetic properties of the compound of Example 13 were evaluated separately and compared to previously generated data.
For IV dosing, a 0.5 mg/mL solution of the test compound was prepared in a vehicle consisting of 5% DMSO, 5% Cremophore, 90% normal saline. For a 1 mpk dose, 2 mL/kg of this dosing vehicle was administered to each rat by bolus injection into the tail vein. For lower doses, the dosing solution was diluted with the appropriate amount of vehicle. Example 3 was evaluated at 3 mpk by preparing a 1.5 mg/mL solution in the same vehicle and dosing 2 mL/kg. Blood samples from each animal was collected in di-sodium EDTA coated containers at 0.12, 0.25, 0.5, 1.0, 2.0, 4.0, 8.0 and 24.0 hours after dosing. Plasma was separated from the blood samples within 15 minutes following collection and stored at −20±5° C. before analysis.
A standard curve was generated from a stock solution of the test compound with known concentration in methanol. Working solutions having known concentrations ranging from 5-20,000 ng/mL were prepared from the stock solution by dilution with methanol:water (80:20 v/v). 5 uL of the working solutions were added to 45 uL of blank rat plasma to provide standard samples for analysis.
Plasma samples collected from rats after dosing were allowed to reach room temperature. A 50 uL aliquot of each plasma sample and the standard curve plasma samples were treated with 200 uL of acetonitrile containing an internal standard (100 ng/mL; warfarin/diclofenac) and mixed well. The samples were vortexed for 5 minutes followed by centrifugation for 5 minutes at 14000 rpm at 4° C. The supernatant (10 uL) was analyzed by LC-MS/MS (LC: Shimadzu SIL HTc, MS: MDS Sciex API-5500 & 4000 using 75%/25% acetonitrile/0.2% formic acid in Milli-Q water, flow rate: 1.0 mL/min, run time 3 minutes, Atlantis dC18(50×4.6 mm, 3 um; Waters®)) and the concentrations of the test compound in the plasma samples collected from rats at each time point were determined by comparison to the standard curve samples.
Pharmacokinetic parameters were calculated from the plasma concentrations at each time point using Phoenix WinNonlin (Version 7.0) by the non-compartmental analysis (NCA) method. Clearance values are reported as mL/min/kg. AUC values are reported as ng·h/mL.

[2] = 120 min, relative to parent at T0

Cc1cnc(-c2ccnc(C(C)(C)O)n2)cc1-n1c(C)cc(OCc2ncc(F)cc2F)c(Cl)c1=O (atropisomer, axis not shown; (P)) [Example 1-H2, (P)-3-chloro-4-((3,5-difluoropyridin-2-yl)methoxy)-2′-(2-(2-hydroxypropan-2-yl)pyrimidin-4-yl)-5′,6-dimethyl-2H-[1,4′-bipyridin]-2-one]
UV % at 280-290 nm or observed (+ or --), metabolite M387 (O-dealkylation) (human hepatocytes; [2]): 3.5%
UV % at 280-290 nm or observed (+ or --), metabolite M530b (Hydroxylation) (human hepatocytes; [2]): +
UV % at 280-290 nm or observed (+ or --), metabolite M530c (Hydroxylation) (human hepatocytes; [2]): 1.3%
UV % at 280-290 nm or observed (+ or --), metabolite M530e (Hydroxylation) (human hepatocytes; [2]): +
UV % at 280-290 nm or observed (+ or --), metabolite M563 (O-dealkylation + Glucuronidation) (human hepatocytes; [2]): --
UV % at 280-290 nm or observed (+ or --), metabolite M530d (Hydroxylation) (human hepatocytes; [2]): 1.5%
UV % at 280-290 nm, Parent-T120 min (human hepatocytes; [2]): 84.8%
UV % at 280-290 nm, Parent-T0 min (human hepatocytes): 100.0%
UV % at 280-290 nm or observed (+ or --), metabolite M387 (O-dealkylation) (dog hepatocytes; [2]): 4.1%
UV % at 280-290 nm or observed (+ or --), metabolite M530b (Hydroxylation) (dog hepatocytes; [2]): --
UV % at 280-290 nm or observed (+ or --), metabolite M530c (Hydroxylation) (dog hepatocytes; [2]): +
UV % at 280-290 nm or observed (+ or --), metabolite M530e (Hydroxylation) (dog hepatocytes; [2]): +
UV % at 280-290 nm or observed (+ or --), metabolite M563 (O-dealkylation + Glucuronidation) (dog hepatocytes; [2]): +
UV % at 280-290 nm or observed (+ or --), metabolite M530d (Hydroxylation) (dog hepatocytes; [2]): --
UV % at 280-290 nm, Parent-T120 min (dog hepatocytes; [2]): 87.0%
UV % at 280-290 nm, Parent-T0 min (dog hepatocytes): 100.0%
IV clearance 0.1 mpk ([1]; IV 0.1 mpk, ± one standard deviation): 24 ± 4 mL/min/kg
IV clearance 0.3 mpk ([1]; IV 0.3 mpk, ± one standard deviation): 23 ± 7 mL/min/kg
IV clearance 1 mpk ([1]; IV 1 mpk, ± one standard deviation): 24 ± 5 mL/min/kg

[2H]C([2H])(Oc1cc(C)n(-c2cc(-c3ccnc(C(C)(C)O)n3)ncc2C)c(=O)c1Cl)c1ncc(F)cc1F (single isomer, unassigned) [Example 1-D2, (P)-3-Chloro-4-((3,5-difluoropyridin-2-yl)methoxy-d2)-2′-(2-(2-hydroxypropan-2-yl)pyrimidin-4-yl)-5′,6-dimethyl-2H-[1,4′-bipyridin]-2-one]
UV % at 280-290 nm or observed (+ or --), metabolite M387 (O-dealkylation) (human hepatocytes; [2]): +
UV % at 280-290 nm or observed (+ or --), metabolite M532b (Hydroxylation) (human hepatocytes; [2]): +
UV % at 280-290 nm or observed (+ or --), metabolite M532e (Hydroxylation) (human hepatocytes; [2]): +
UV % at 280-290 nm, Parent-T120 min (human hepatocytes; [2]): 88.2%
UV % at 280-290 nm, Parent-T0 min (human hepatocytes): 100.0%
UV % at 280-290 nm or observed (+ or --), metabolite M387 (O-dealkylation) (dog hepatocytes; [2]): +
UV % at 280-290 nm or observed (+ or --), metabolite M532b (Hydroxylation) (dog hepatocytes; [2]): --
UV % at 280-290 nm or observed (+ or --), metabolite M532c (Hydroxylation) (dog hepatocytes; [2]): +
UV % at 280-290 nm or observed (+ or --), metabolite M532e (Hydroxylation) (dog hepatocytes; [2]): +
UV % at 280-290 nm or observed (+ or --), metabolite M532d (Hydroxylation) (dog hepatocytes; [2]): --
UV % at 280-290 nm, Parent-T120 min (dog hepatocytes; [2]): 96.0%
UV % at 280-290 nm, Parent-T0 min (dog hepatocytes): 100.0%
effect of deuterium substitution on clearance ([1]; IV, versus non-deuterated comparator Example 1-H2): clear and consistent reduction in clearance
clearance ([1]; 0.1 mg/kg, IV 0.1 mpk, ± one standard deviation, read-out: IV clearance 0.1 mpk): 16 ± 4 mL/min/kg
clearance ([1]; 0.3 mg/kg, IV 0.3 mpk, ± one standard deviation, read-out: IV clearance 0.3 mpk): 12 ± 3 mL/min/kg
clearance ([1]; 1 mg/kg, IV 1 mpk, ± one standard deviation, read-out: IV clearance 1 mpk): 9.5 mL/min/kg
